What was measured:
Conditions in all cases: treatment: drug + dasatinib (fixed dose, not stated); 5 days
769-P [1] = assay: GI50 of drug in presence of dasatinib; higher = less potent
Procedure: (§1)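 Primary HTS combination arm: 8 RCC cell lines treated with 8 doses (up to 10 uM) of each library drug plus a fixed dose of dasatinib (dose not stated) for 5 days; viability read by CellTiter-Glo and normalised to DMSO. GI50 was fitted with XLfit, AUC is the area under the dose-response curve, and minimum viability is the lowest fraction of DMSO viability across doses.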

A498 [2] = assay: as above
Procedure: as §1

SN12C [3] = assay: as above
Procedure: as §1

CAKI-1 [4] = assay: as above
Procedure: as §1

TK-10 [5] = assay: as above
Procedure: as §1

UO-31 [6] = assay: as above
Procedure: as §1

786-O [7] = assay: as above
Procedure: as §1

ACHN [8] = assay: as above
Procedure: as §1

769-P [9] = assay: minimum viability across doses, drug + dasatinib, relative to DMSO (fraction); higher = less growth inhibition
Procedure: as §1

A498 [10] = assay: as above
Procedure: as §1

SN12C [11] = assay: as above
Procedure: as §1

CAKI-1 [12] = assay: as above
Procedure: as §1

TK-10 [13] = assay: as above
Procedure: as §1

UO-31 [14] = assay: as above
Procedure: as §1

786-O [15] = assay: as above
Procedure: as §1

ACHN [16] = assay: as above
Procedure: as §1

769-P [17] = assay: AUC of dose-response viability curve, drug + dasatinib, normalised to DMSO (arbitrary (AUC of normalised viability)); higher = less growth inhibition
Procedure: as §1

A498 [18] = assay: as above
Procedure: as §1

SN12C [19] = assay: as above
Procedure: as §1

CAKI-1 [20] = assay: as above
Procedure: as §1

TK-10 [21] = assay: as above
Procedure: as §1

UO-31 [22] = assay: as above
Procedure: as §1

786-O [23] = assay: as above
Procedure: as §1

ACHN [24] = assay: as above
Procedure: as §1

| SMILES | GI50 of drug (786-O [7]) [nM] | GI50 of drug (ACHN [8]) [nM] | GI50 of drug (769-P [1]) [nM] | GI50 of drug (A498 [2]) [nM] | GI50 of drug (SN12C [3]) [nM] | GI50 of drug (CAKI-1 [4]) [nM] | GI50 of drug (TK-10 [5]) [nM] | GI50 of drug (UO-31 [6]) [nM] | minimum viability across doses (769-P [9]) | minimum viability across doses (A498 [10]) | minimum viability across doses (SN12C [11]) | minimum viability across doses (CAKI-1 [12]) | minimum viability across doses (TK-10 [13]) | minimum viability across doses (UO-31 [14]) | minimum viability across doses (786-O [15]) | minimum viability across doses (ACHN [16]) | AUC of dose-response viability curve (769-P [17]) | AUC of dose-response viability curve (A498 [18]) | AUC of dose-response viability curve (SN12C [19]) | AUC of dose-response viability curve (CAKI-1 [20]) | AUC of dose-response viability curve (TK-10 [21]) | AUC of dose-response viability curve (UO-31 [22]) | AUC of dose-response viability curve (786-O [23]) | AUC of dose-response viability curve (ACHN [24]) |
| --- | --- | --- | --- | --- | --- | --- | --- | --- | --- | --- | --- | --- | --- | --- | --- | --- | --- | --- | --- | --- | --- | --- | --- | --- |
| CN(C)C/C=C/C(=O)Nc1cc2c(Nc3ccc(F)c(Cl)c3)ncnc2cc1O[C@H]1CCOC1 [Afatinib (BIBW2992)] + Cc1nc(Nc2ncc(C(=O)Nc3c(C)cccc3Cl)s2)cc(N2CCN(CCO)CC2)n1 [dasatinib] | 953 | 4.16 | 29.1 | 1490 | 2300 | 241 | 72.5 | 885 | 0.0233 | 0.00955 | 0.0274 | 0.0121 | 0.0817 | 0.00619 | 0.00818 | 0.00184 | 1.31 | 2.54 | 2.02 | 1.57 | 1.58 | 1.88 | 1.92 | 1.02 |
| O=c1cc(N2CCOCC2)oc2c(-c3cccc4c3sc3ccccc34)cccc12 + Cc1nc(Nc2ncc(C(=O)Nc3c(C)cccc3Cl)s2)cc(N2CCN(CCO)CC2)n1 [dasatinib] | 763 | 1800 | 3090 | 8330 | > 10000 | 847 | 4630 | 2850 | 0.225 | 0.442 | 0.401 | 0.112 | 0.289 | 0.0435 | 0.0139 | 0.139 | 2.36 | 3.4 | 2.38 | 1.96 | 2.52 | 3.36 | 1.89 | 2.09 |
| CN1CC[C@H](c2c(O)cc(O)c3c(=O)cc(-c4ccccc4Cl)oc23)[C@H](O)C1.Cl [Flavopiridol hydrochloride] + Cc1nc(Nc2ncc(C(=O)Nc3c(C)cccc3Cl)s2)cc(N2CCN(CCO)CC2)n1 [dasatinib] | 34.9 | 24.5 | 86 | 171 | 106 | 33.6 | 119 | 252 | 0.0135 | 0.0115 | 0.00632 | 0.0304 | 0.168 | 0.00894 | 0.00472 | 0.00412 | 1.34 | 1.74 | 1.28 | 1.02 | 1.53 | 1.98 | 0.837 | 0.849 |
| C[C@]1(O)C[C@@H](c2nc(-c3ccc4ccc(-c5ccccc5)nc4c3)c3c(N)nccn32)C1 [Linsitinib (OSI-906)] + Cc1nc(Nc2ncc(C(=O)Nc3c(C)cccc3Cl)s2)cc(N2CCN(CCO)CC2)n1 [dasatinib] | > 10000 | 2970 | > 10000 | > 10000 | > 10000 | 2600 | > 10000 | > 10000 | 0.527 | 0.824 | 0.592 | 0.259 | 0.55 | 0.647 | 0.689 | 0.361 | 2.3 | 3.31 | 2.28 | 2.2 | 2.43 | 3.19 | 2.64 | 1.89 |
| Cn1cc(-c2ccc3ncc(Cc4ccc5ncccc5c4)n3n2)cn1 [NVP-BVU972] + Cc1nc(Nc2ncc(C(=O)Nc3c(C)cccc3Cl)s2)cc(N2CCN(CCO)CC2)n1 [dasatinib] | 361 | 15.4 | 1150 | 1440 | 1900 | 303 | 836 | 2040 | 0.0263 | 0.0158 | 0.0116 | 0.0417 | 0.119 | 0.0147 | 0.00818 | 0.0103 | 2.06 | 3.44 | 2.12 | 1.71 | 2.03 | 3.81 | 1.79 | 1.28 |

Further lines, with some results ahead:

| GI50 of drug (786-O [7]) [nM] | GI50 of drug (ACHN [8]) [nM] | SMILES | GI50 of drug (769-P [1]) [nM] | GI50 of drug (A498 [2]) [nM] | GI50 of drug (SN12C [3]) [nM] | GI50 of drug (CAKI-1 [4]) [nM] | GI50 of drug (TK-10 [5]) [nM] | GI50 of drug (UO-31 [6]) [nM] | minimum viability across doses (769-P [9]) | minimum viability across doses (A498 [10]) | minimum viability across doses (SN12C [11]) | minimum viability across doses (CAKI-1 [12]) | minimum viability across doses (TK-10 [13]) | minimum viability across doses (UO-31 [14]) | minimum viability across doses (786-O [15]) | minimum viability across doses (ACHN [16]) | AUC of dose-response viability curve (769-P [17]) | AUC of dose-response viability curve (A498 [18]) | AUC of dose-response viability curve (SN12C [19]) | AUC of dose-response viability curve (CAKI-1 [20]) | AUC of dose-response viability curve (TK-10 [21]) | AUC of dose-response viability curve (UO-31 [22]) | AUC of dose-response viability curve (786-O [23]) | AUC of dose-response viability curve (ACHN [24]) |
| --- | --- | --- | --- | --- | --- | --- | --- | --- | --- | --- | --- | --- | --- | --- | --- | --- | --- | --- | --- | --- | --- | --- | --- | --- |
| 1480 | 127 | C=CC(=O)Nc1cccc(Sc2nc(Nc3ccc(N4CCN(C)CC4)cc3)ncc2Cl)c1 [WZ8040] + Cc1nc(Nc2ncc(C(=O)Nc3c(C)cccc3Cl)s2)cc(N2CCN(CCO)CC2)n1 [dasatinib] | 1160 | 8300 | 3880 | 1650 | 652 | 2340 | 0.0198 | 0.113 | 0.00446 | 0.00162 | 0.0196 | 0.0164 | 0.00713 | 0.00268 | 2.02 | 3.23 | 2.18 | 1.96 | 1.96 | 2.72 | 2.05 | 1.5 |
| 2540 | 346 | NC(=O)Nc1sc(-c2ccc(F)cc2)cc1C(N)=O [TPCA-1] + Cc1nc(Nc2ncc(C(=O)Nc3c(C)cccc3Cl)s2)cc(N2CCN(CCO)CC2)n1 [dasatinib] | 2180 | > 10000 | > 10000 | 458 | 848 | 3720 | 0.232 | 0.711 | 0.405 | 0.076 | 0.176 | 0.212 | 0.258 | 0.184 | 2.22 | 3.33 | 2.35 | 1.81 | 1.94 | 3.28 | 2.09 | 1.7 |
